Structures can show the parent of a compound that is named as a salt.
Experiments:
rat PMNs = experiment: Inhibition of rrIFN-γ priming of rat PMN, Superoxide Anion (O2-) assay; assay type: cell-based; settings: PMNs from rat air pouch elicited with rHuIL-1 (25ng/pouch); PMA (200ng/mL) as stimulus, rrIFN-γ (1000 Units/mL); compound 0 to 1000µM; superoxide anion readout; read-out: IC₅₀ (inhibits the rrIFN-γ priming of rat PMN in vitro)
Method: The rat air pouch model of inflammation was used to obtain rat PMNs using 25ng/pouch of recombinant human interleukin-1 (rHuIL-1) to elicit the cells essentially according to the method of Esser et al. [Internat. J. Tissue Reactions XI, 291 (1989)]. PMNs were incubated along with phorbol myristate acetate (PMA) (200ng/mL), which acts as a soluble stimulus, and rrIFN-γ (1000 Units/mL), which act as a stimulatory lymphokine, in the presence of various concentrations of (1R,3S)-Cis-1-(9-adenyl)-3-hydroxy-4-cyclopentene (0 to 1000µM). The degree of macrophage priming was measured using the Superoxide Anion (O₂⁻) assay as described by Edwards et al. [Science 239, 769 (1988)].

[1] = system: Rat peritoneal macrophages; experiment: Inhibition of priming of rat peritoneal macrophages, Superoxide Anion (O2-) assay; assay type: cell-based; settings: Peritoneal macrophage, opsonized zymosan (3 mg/mL) as stimulus, rrIFN-γ (1000Units/mL), compound 0 to 1000µM, superoxide anion readout, read-out: IC₅₀ (inhibits the priming of rat macrophages in vitro)
Method: Rat peritoneal macrophages were isolated and grown in cell culture essentially as described by Edwards et al. [Science 239, 769 (1988)]. Macrophages were incubated along with opsonized zymosan (3 mg/mL), which acts as a particulate stimulus, and recombinant rat γ-interferon (rrIFN-γ)(1000Units/mL), which acts as an activating lymphokine, in the presence of various concentrations of (1R,3S)-Cis-1-(9-adenyl)-3-hydroxy-4-cyclopentene (0 to 1000µM). The degree of macrophage priming was measured using the Superoxide Anion (O₂⁻) assay as described by Edwards et al. [Science 239, 769 (1988)].

IC50 (rat PMNs): 0.015 µM
IC50 [1]: 25 µM
Compound: Nc1ncnc2c1ncn2[C@H]1C=C[C@@H](O)C1 [Example 1, (1R,3S)-Cis-1-(9-adenyl)-3-hydroxy-4-cyclopentene hydrochloride]

From patent EP0475413B1, “Carbocyclic nucleoside analogs useful as immunosuppressants” (HOECHST MARION ROUSSEL, INC., priority 1990, dated 1992)
